Measured values: patent publication US10004683B2, “Antimicrobial formulations” (Common Pharma, Inc., priority 2015, dated 2018)

Tested on: New Zealand White Rabbits
Assay: Dermal irritation test, ISO 10993-10:2010
Settings: rabbits inspected at 1, 24, 48 and 72 hours; scale 0 to 0.4 Negligible, 0.5 to 1.9 Slight, 2 to 4.9 Moderate, 5 to 8 Severe
Procedure: The test was performed according to ISO 10993-10:2010. The test sample was 2% Noveon and 2% boric acid in water. A placebo was also tested which was only 2% Noveon in water. All testing was under GLP conditions. A negative control was used which was 0.9% Sodium Chloride for Injection, USP and a positive control was used which was 20% W/V of sodium dodecyl sulfate (SDS) in water.
The test animals were inspected at times 1, 24, 48 and 72 hours.

Q: `CCCCCCCCCCCCOS(=O)(=O)[O-].[Na+]` [positive control, sodium dodecyl sulfate] was tested. Which “dermal irritation observational rankings” value did it give?
A: 2-4
